From patent US10640765B2 (priority 2016, dated 2020)

Assays:
[1] = tested on: vaccinia virus (v7.5/tk viral DNA) in BSC-1 cells; format: cell-based
vaccinia virus = format: cell-based

For CO[C@H]1/C=C/O[C@@]2(C)Oc3c(C)c(O)c4c(O)c(c(/C=N/N5CCN(C)CC5)c(O)c4c3C2=O)NC(=O)/C(C)=C\C=C\[C@H](C)[C@H](O)[C@@H](C)[C@@H](O)[C@@H](C)[C@H](OC(C)=O)[C@@H]1C [Rifampicin, rifampicin], which “efficiency (number of recombinant clones)” value [1] is on record?
Its value is 113,148 clones/100 mm^2 plate.

And the “overall efficiency of clone production with rifampicin versus without rifampicin” value (vaccinia virus)?
Its value is “approximately 10 fold”.
